# Patent US7553496B2, “VEGF-A as an inhibitor of angiogenesis and methods of using same” (University of Kentucky Research Foundation, priority 2004, dated 2009)
# Entries after “also recorded” stand apart in the source; their conditions may differ.
# B1: SPARC: recombinant human SPARC, secreted protein, acidic, rich in cysteine (protein, UniProt P09486 18-303, looked up)
# SPARC: APQQEALPDETEVVEETVAEVTEVSVGANPVQVEVGEFDDGAEETEEEVVAENPCQNHHCKHGKVCELDENNTPMCVCQDPTSCPAPIGEFEKVCSNDNKTFDSSCHFFATKCTLEGTKKGHKLHLDYIGPCKYIPPCLDSELTEFPLRMRDWLKNVLVTLYERDEDNNLLTEKQKLRVKKIHENEKRLEAGDHPVELLARDFEKNYNMYIFPVHWQFGQLDQHPIDGYLSHTELAPLRAPLIPMEHCTTRFFETCDLDNDKYIALDEWAGCFGIKQKDIDKDLVI
# Experiments:
# [1] = tested on: bone marrow derived endothelial cells (BMDECs); test: Bone marrow derived endothelial cell incorporation in GFP chimeric mice (flow cytometry); assay type: in vivo, mouse; details: 0.55 ng
# Text: We tested the effect of VEGF-A164 injection one day after laser injury in GFP chimeric mice 8 weeks following bone marrow transplantation in mice with engraftment exceeding 90%. In the RPE/choroid, GFP^+ cells were identified only at the site of laser injury and the immediate vicinity (data not shown). The bulk (>60%) of GFP^+ cells in the RPE/choroid following injury expressed either CD11b or F4/80, markers of monocytic lineage, while nearly all (>95%) CD11b^+ and F4/80^+ cells expressed GFP. […] The vast majority (>90%) of GFP^+CD31^+ cells, both in PBS- and VEGF-A164-treated eyes, also expressed CD11b or F4/80.
# (§1) Flow cytometry. Single cell suspensions isolated from mouse RPE/choroids via collagenase D (20 U/ml; Roche Diagnostics) treatment were incubated in Fc block (0.5 mg/ml; BD Pharmingen) for 15 min on ice. Rabbit antibody to mouse VEGFR-1 (1:250; Santa Cruz) coupled with Cy5-donkey antibody to rabbit IgG Ab (1:250) and Phycoerythrin-conjugated rat antibody to mouse VEGFR-2 (1:250; eBioscience) were used to quantitate cell surface receptor expression. […] DNA content was analyzed following incubation with propidium iodide (0.05 mg/ml; Molecular Probes) containing 0.1% Triton X-100 and RNase A (0.1 mg/ml; Roche).
# [2] = tested on: laser-induced CNV; test: Laser-induced choroidal neovascularization (CNV) volume, confocal microscopy; assay type: in vivo, mouse; details: for effect on VEGF-A-induced suppression of CNV: given with VEGF-A164 after laser injury
# [3] = tested on: VEGF-A; details: mouse, in vivo
# [4] = tested on: choroidal endothelial cells (CEC); test: Cell cycle distribution of CEC after laser injury (flow cytometry, propidium iodide); details: mouse, in vivo
# Protocol: Flow cytometry. Single cell suspensions isolated from mouse RPE/choroids via collagenase D (20 U/ml; Roche Diagnostics) treatment were incubated in Fc block (0.5 mg/ml; BD Pharmingen) for 15 min on ice. Rabbit antibody to mouse VEGFR-1 (1:250; Santa Cruz) coupled with Cy5-donkey antibody to rabbit IgG Ab (1:250) and Phycoerythrin-conjugated rat antibody to mouse VEGFR-2 (1:250; eBioscience) were used to quantitate cell surface receptor expression. Macrophages defined as F4/80^+CD11c^− cells, were gated by rat antibody to mouse Cy5-F4/80 (1:30; Serotec) and hamster antibody to mouse FITC-CD11c (1:100; Serotec), CEC by FITC-conjugated rat antibody to mouse CD31 (1:250; BD Biosciences), and RPE cells by FITC-conjugated mouse antibody to human pan-cytokeratin (1:250; Sigma-Aldrich) staining following fixation with 4% paraformaldehyde and permeabilization with 1% Triton X-100 (Sigma Aldrich) and subjected to FACS analysis (FACSCalibur, BD Biosciences). DNA content was analyzed following incubation with propidium iodide (0.05 mg/ml; Molecular Probes) containing 0.1% Triton X-100 and RNase A (0.1 mg/ml; Roche).
# [5] = tested on: Ccl-2; test: Ccl-2 levels in RPE and choroid after laser injury (ELISA); assay type: in vivo, mouse
# [6] = tested on: choroidal macrophages; test: Choroidal macrophage recruitment after laser injury (flow cytometry); assay type: in vivo, mouse
# Protocol: Drug treatments. VEGF-A164 (4-12 ng), VEGF-A120 (2.7-27 ng), PLGF-1 (12.5-1,250 ng), mouse PLGF-2 (165-1,650 ng), mouse Ccl-2 (0.55 ng), neutralizing goat antibodies to mouse VEGF-A (5-20 ng), mouse VEGFR-1 (6-18 μg), mouse VEGFR-2 (25-250 ng), or rat NP-1 (200-500 ng; all R&D Systems), recombinant human SPARC (100-300 ng; purified in the laboratory of E. H. Sage) or neutralizing mouse antibody to human SPARC (4-12 μg; purified in the laboratory R. W. Brekken, University of Texas), neutralizing rabbit antibody to rat NP-2 (200-500 ng; gifts of D. D. Ginty, Johns Hopkins University and S. Niclou, Netherlands Institute for Brain Research (Shearer, M. C. et al. The astrocyte/meningeal cell interface is a barrier to neurite outgrowth which can be overcome by manipulation of inhibitory molecules or axonal signalling pathways. […]
# as §1, with “Single cell suspensions isolated from mouse RPE/choroids via collagenase D (20 U/ml; Roche Diagnostics) treatment were incubated in Fc block (0.5 mg/ml; BD Pharmingen) for 15 min on ice.” left out
# [7] = target: VEGFR-1 (Homo sapiens, UniProt P17948); details: cited from earlier work
# VEGFR-1, sequence (P17948 27-1338, species assumed): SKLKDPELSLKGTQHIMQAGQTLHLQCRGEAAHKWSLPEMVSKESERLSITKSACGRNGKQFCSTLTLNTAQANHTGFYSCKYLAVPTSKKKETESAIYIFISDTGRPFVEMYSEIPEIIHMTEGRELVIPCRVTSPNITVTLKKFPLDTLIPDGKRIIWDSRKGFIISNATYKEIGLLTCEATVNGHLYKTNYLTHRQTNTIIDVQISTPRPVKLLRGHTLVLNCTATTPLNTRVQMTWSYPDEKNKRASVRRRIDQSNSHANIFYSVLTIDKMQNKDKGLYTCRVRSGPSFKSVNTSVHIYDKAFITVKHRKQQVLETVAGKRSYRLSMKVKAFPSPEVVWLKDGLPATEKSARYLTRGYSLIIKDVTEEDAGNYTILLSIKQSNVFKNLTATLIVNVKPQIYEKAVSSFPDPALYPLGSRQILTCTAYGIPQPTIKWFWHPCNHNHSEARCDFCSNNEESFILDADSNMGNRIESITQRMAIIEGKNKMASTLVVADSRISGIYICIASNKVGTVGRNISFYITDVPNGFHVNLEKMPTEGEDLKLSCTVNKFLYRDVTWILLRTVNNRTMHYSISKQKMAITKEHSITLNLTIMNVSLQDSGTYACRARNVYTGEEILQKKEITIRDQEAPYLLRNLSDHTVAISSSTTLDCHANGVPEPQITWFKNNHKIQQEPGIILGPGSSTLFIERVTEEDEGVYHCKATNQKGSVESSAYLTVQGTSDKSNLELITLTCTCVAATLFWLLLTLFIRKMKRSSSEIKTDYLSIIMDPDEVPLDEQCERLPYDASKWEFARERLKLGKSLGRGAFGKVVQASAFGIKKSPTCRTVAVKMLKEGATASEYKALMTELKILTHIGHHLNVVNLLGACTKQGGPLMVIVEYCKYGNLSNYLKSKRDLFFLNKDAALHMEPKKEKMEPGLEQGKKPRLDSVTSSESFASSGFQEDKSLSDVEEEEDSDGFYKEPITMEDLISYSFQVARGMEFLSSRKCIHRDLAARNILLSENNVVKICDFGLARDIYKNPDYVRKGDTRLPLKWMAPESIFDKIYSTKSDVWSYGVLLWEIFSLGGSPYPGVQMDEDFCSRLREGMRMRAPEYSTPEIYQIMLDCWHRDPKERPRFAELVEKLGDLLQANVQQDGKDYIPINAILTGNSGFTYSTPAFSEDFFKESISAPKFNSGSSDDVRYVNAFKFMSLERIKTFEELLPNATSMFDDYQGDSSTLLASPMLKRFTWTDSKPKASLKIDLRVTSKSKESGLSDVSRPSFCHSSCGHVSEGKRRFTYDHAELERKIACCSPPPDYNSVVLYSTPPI
# [8] = tested on: flt3; details: read-out: IC50 flt3; cited from earlier work
# [9] = tested on: platelet derived growth factor receptor (PDGFR); details: cited from earlier work
# [10] = target: c-kit (Homo sapiens, UniProt P10721); details: cited from earlier work
# c-kit, sequence (P10721 26-976): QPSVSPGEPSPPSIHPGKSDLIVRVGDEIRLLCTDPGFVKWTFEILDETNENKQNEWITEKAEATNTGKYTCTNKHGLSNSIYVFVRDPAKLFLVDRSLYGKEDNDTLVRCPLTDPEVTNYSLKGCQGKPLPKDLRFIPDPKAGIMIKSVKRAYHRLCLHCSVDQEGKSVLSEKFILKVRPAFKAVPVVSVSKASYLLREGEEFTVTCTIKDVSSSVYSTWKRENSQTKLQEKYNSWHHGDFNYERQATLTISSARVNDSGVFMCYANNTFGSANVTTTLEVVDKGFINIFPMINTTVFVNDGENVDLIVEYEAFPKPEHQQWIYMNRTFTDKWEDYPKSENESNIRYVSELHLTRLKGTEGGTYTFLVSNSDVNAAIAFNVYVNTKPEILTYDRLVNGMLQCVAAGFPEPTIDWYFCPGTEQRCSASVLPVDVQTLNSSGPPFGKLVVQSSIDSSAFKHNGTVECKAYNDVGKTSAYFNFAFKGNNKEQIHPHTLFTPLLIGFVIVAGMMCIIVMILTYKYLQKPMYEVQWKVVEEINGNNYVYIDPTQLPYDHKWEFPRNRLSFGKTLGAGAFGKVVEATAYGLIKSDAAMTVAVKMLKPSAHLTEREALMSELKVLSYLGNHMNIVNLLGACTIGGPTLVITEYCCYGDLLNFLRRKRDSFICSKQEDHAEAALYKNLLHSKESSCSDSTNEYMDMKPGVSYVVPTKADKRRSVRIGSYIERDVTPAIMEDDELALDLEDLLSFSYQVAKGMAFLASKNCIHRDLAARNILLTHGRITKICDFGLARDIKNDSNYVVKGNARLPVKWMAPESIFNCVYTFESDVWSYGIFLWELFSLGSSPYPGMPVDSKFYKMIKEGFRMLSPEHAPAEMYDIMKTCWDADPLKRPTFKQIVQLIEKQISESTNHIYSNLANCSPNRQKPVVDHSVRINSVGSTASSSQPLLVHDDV
# [11] = agent alone, intravitreous, immediately or one day after laser injury, wild-type mice, vs PBS
molecule,measurement,setting,value
"Ccl-2: exogenous recombinant Ccl-2, monocyte chemoattractant",effect on VEGF-A164 reduction in vasculogenesis,[1],abrogated
same,effect on clodronate liposome reduction of BMDEC incorporation,[1],did not abrogate
same,effect on CNV inhibited by VEGF-A antibody,[2]; 0.55 ng,restored the CNV
same,volume of CNV,[2]; Ccl2−/− or Ccr2−/− mice,restores CNV
same,volume of CNV,"[2]; Ccl2−/− or Ccr2−/− mice, listed as Recombinant Ccl-2",restored CNV
same,effect on VEGF-A-induced suppression of CNV,[2],abrogates
same,effect on VEGF-A-induced suppression of CNV,[2]; listed as recombinant Ccl-2,abrogated
[Cl-].[Cl-].[Co+2] [CoCl2],aggregate VEGF-A exposure (area under the curve) higher than after laser injury alone,[3],52%
same,peak VEGF-A in RPE and choroid relative to maximal level following laser injury alone,[3],less than double
Cc1[nH]c(/C=C2\C(=O)Nc3ccc(S(=O)(=O)Cc4c(Cl)cccc4Cl)cc32)c(C)c1C(=O)N1CCC[C@@H]1CN1CCCC1 [PHA665752],effect on VEGF-A-induced suppression of CNV,[2],Neither AG1295 (15 ng) nor PHA665752 (0.4 ng) blocked
"C=CC1=C(C)c2cc3[n-]c(cc4[n-]c(cc5nc(cc1n2)C(C)=C5C=C)c(C)c4CCC(=O)O)c(CCC(=O)O)c3C.[Zn+2] [ZnPP, zinc protoporphyrin IX]",effect on VEGF-A-induced G0/G1 arrest of CEC,[4],reversed
same,effect on VEGF-A-induced suppression of Ccl-2,[5],abolished
same,effect on VEGF-A-induced suppression of CNV,[2],abolished
OO [H2O2],volume of CNV,[2]; [11],decreased the volume of CNV; also recorded: inhibited
"COC(=O)[C@@H](N)CCCNC(=N)N[N+](=O)[O-] [L-NAME, N^ω-nitro-L-arginine methyl ester]",effect on VEGF-A-induced suppression of CNV,[2],did not reverse; also recorded: not affected
OB(O)c1cccc(NCc2cc(O)ccc2O)c1 [DBAPBA],effect on VEGF-A-induced suppression of monocyte recruitment,[6],blocked
same,IC50,[7],40 µM
same,effect on VEGF-A-induced suppression of Ccl-2,[5],blocked
same,effect on VEGF-A-induced suppression of CNV,[2],blocked; also recorded: reversed by DBAPBA in a dose-dependent fashion
"Cc1occc(=O)c1[O-].Cc1occc(=O)c1[O-].[O]=[V+2] [BMOV, bis(maltolato)oxovanadium(IV)]",effect on VEGF-A-induced suppression of CNV,[2],abrogated
"Cc1cc(C)c(C=C2C(=O)Nc3ccccc32)[nH]1 [SU5416, 3-((2,4-dimethylpyrrol-5-yl)methylidene]-indolin-2-one]",effect on VEGF-A-induced suppression of monocyte recruitment,[6],blocked
same,effect on VEGF-A-induced suppression of Ccl-2,[5],blocked
same,effect on VEGF-A-induced suppression of CNV,[2],blocked; also recorded: abrogates
"FGF-2: basic fibroblast growth factor, another potent angiogenic cytokine",volume of CNV,[2]; [11],did not evoke similar responses; also recorded: minor increases
"CC(C)c1cc(/C=C(\C#N)C(=O)NCCCc2ccccc2)cc(C(C)C)c1O [SU1498, (E)-3-(3,5-diisopropyl-4-hydroxyphenyl)-2-[(3-phenyl-n-propyl)amino-carbonyl]acrylonitrile]",effect on VEGF-E-induced increase in CNV,[2]; after laser injury,blocked
O.O.O.O.O.O.O.O.O.O=C([O-])[C@@H]1[O][Sb]2([O-])([O][Sb]34([OH])[O][C@H]([C@H](O)CO)[C@H]([O]3)[C@H](C(=O)[O-])[O]4)[O][C@H]([C@H](O)CO)[C@@H]1[O]2.[Na+].[Na+].[Na+] [sodium stibogluconate],effect on VEGF-A-induced suppression of CNV,[2],abolished
"Cc1cc2ncc(-c3ccccc3)nc2cc1C [AG1295, 6,7-dimethyl-2-phenylquinoxaline]",IC50,[8],0.5 µM
same,IC50,[9],0.4 µM
same,IC50,[10],1.8 µM
same,effect on VEGF-A-induced suppression of CNV,[2],Neither AG1295 (15 ng) nor PHA665752 (0.4 ng) blocked
B1,inhibition of VEGFR-1 kinase activity,"[7]; in vitro, literature",inhibits the kinase activity of VEGFR-1
same,volume of CNV,[2]; [11],did not alter CNV
same,effect on VEGF-A-induced suppression of CNV,[2],abolished
same,effect on VEGF-A-induced suppression of CNV,[2]; listed as recombinant human SPARC,dose-dependently abolished
